Assay [1] deals with T1, IDO1 (Homo sapiens, UniProt P14902). Put plainly: IDO1 Human Whole blood Assay. Type of assay: cell-based. Set-up: Human whole blood was drawn in sodium heparin coated tubes from healthy internal donors; from tissue; host or cells: human whole blood from healthy donors, stimulated with LPS and IFNγ. The conditions noted are these: LPS and IFNγ stimulated, 18 h, read-out: Human Whole Blood Potency, IC50. The method, boiled down: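 LC/MS/MS of kynurenine, normalized to spiked isotope-labeled standard (3 μM final), served as the readout. Beforehand, fresh human blood with compound (15 min preincubation) was stimulated overnight (18 h, 37 °C) with 100 ng/mL LPS/IFNγ. IC50 was obtained by four-parameter curve fitting.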
T1 sequence (P14902 whole entry): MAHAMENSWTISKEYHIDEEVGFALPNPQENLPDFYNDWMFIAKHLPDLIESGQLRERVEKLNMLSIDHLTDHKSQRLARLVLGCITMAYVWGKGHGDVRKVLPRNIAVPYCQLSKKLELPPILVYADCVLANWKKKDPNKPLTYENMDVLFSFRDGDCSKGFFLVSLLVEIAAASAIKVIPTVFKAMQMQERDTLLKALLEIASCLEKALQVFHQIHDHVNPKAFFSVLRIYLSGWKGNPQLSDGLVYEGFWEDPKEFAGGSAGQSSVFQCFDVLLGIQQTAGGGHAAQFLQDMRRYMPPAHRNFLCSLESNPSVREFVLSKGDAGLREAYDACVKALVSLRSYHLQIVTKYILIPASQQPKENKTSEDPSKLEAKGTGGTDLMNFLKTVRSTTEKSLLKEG

Assay [2] has as its target T1, IDO1. In words: IDO1 Cellular Assay in HeLa Cells Stimulated with IFNγ. Type of assay: cell-based. The settings on record: read-out: HeLa Cell Potency, IC50.

20 compounds from patent publication US12264134B2 (Merck Sharp & Dohme LLC, priority 2018, dated 2025) can be followed below.

As usually defined, the IC50 is the concentration needed to halve the response being measured.

For the compound `Cc1c(F)ccc(N2CCN(C(=O)Cn3nc(C(=O)N4CCN(CC(N)=O)CC4)c4c3C[C@H]3C[C@@H]43)C3(CC3)C2)c1C` [Example 322, 2-{4-[(3bR,4aR)-1-{2-[7-(4-fluoro-2,3-dimethylphenyl)-4,7-diazaspiro[2.5]octan-4-yl]-2-oxoethyl}-3b,4,4a,5-tetrahydro-1H-cyclopropa[3,4]cyclopenta[1,2-c]pyrazole-3-carbonyl]piperazin-1-yl}acetamide], the IC50 came out at 1050 nM at IDO1 [1] and 1.6 nM on IDO1 [2].

Regarding `Cc1c(F)ccc(N2CCN(C(=O)Cn3nc(C(=O)N4CCC(O)(CO)CC4)c4c3C[C@H]3C[C@@H]43)C3(CC3)C2)c1C` [Example 323, 1-[7-(4-fluoro-2,3-dimethylphenyl)-4,7-diazaspiro[2.5]octan-4-yl]-2-{(3bR,4aR)-3-[4-hydroxy-4-(hydroxymethyl)piperidine-1-carbonyl]-3b,4,4a,5-tetrahydro-1H-cyclopropa[3,4]cyclopenta[1,2-c]pyrazol-1-yl}ethan-1-one], the IC50 at IDO1 [1] worked out at 1800 nM; at IDO1 [2], 0.69 nM.

For the compound `Cc1cccc(N2CCN(C(=O)Cn3nc(C(=O)N4CCC(O)C(F)C4)c4c3CCC4)C3(CC3)C2)c1C` (stereo not shown) [Example 325, 1-[7-(2,3-dimethylphenyl)-4,7-diazaspiro[2.5]octan-4-yl]-2-[3-(3-fluoro-4-hydroxy-piperidine-1-carbonyl)-5,6-dihydro-4H-cyclopenta[c]pyrazol-1-yl]ethanone], the IC50 was 625 nM at IDO1 [1] and 4.08 nM on IDO1 [2].

On to `Cc1cccc(N2CCN(C(=O)Cn3nc(C(=O)N4CC[C@H](O)[C@H](F)C4)c4c3C[C@H]3C[C@@H]43)C(C)(C)C2)c1C` [Example 331, 1-[4-(2,3-dimethylphenyl)-2,2-dimethylpiperazin-1-yl]-2-{(3bR,4aR)-3-[(3R,4S)-3-fluoro-4-hydroxypiperidine-1-carbonyl]-3b,4,4a,5-tetrahydro-1H-cyclopropa[3,4]cyclopenta[1,2-c]pyrazol-1-yl}ethan-1-one], for which the values for the IC50 on IDO1 [1] and on IDO1 [2] were 9120 nM and 84.5 nM, respectively.

In the case of `Cc1cccc(N2CCN(C(=O)Cn3nc(C(=O)N4CCC(O)(CF)CC4)c4c3C[C@H]3C[C@@H]43)C(C)(C)C2)c1C` [Example 332, 1-[4-(2,3-dimethylphenyl)-2,2-dimethylpiperazin-1-yl]-2-{(3bR,4aR)-3-[4-(fluoromethyl)-4-hydroxypiperidine-1-carbonyl]-3b,4,4a,5-tetrahydro-1H-cyclopropa[3,4]cyclopenta[1,2-c]pyrazol-1-yl}ethan-1-one], the IC50 on IDO1 [1] stood at 9490 nM; on IDO1 [2], 70 nM.

In the case of `Cc1cccc(N2CCN(C(=O)Cn3nc(C(=O)N4CCC5(CO)CC4C5)c4c3C[C@H]3C[C@@H]43)C(C)(C)C2)c1C` [Example 333, 1-[4-(2,3-dimethylphenyl)-2,2-dimethylpiperazin-1-yl]-2-{(3bR,4aR)-3-[5-(hydroxymethyl)-2-azabicyclo[3.1.1]heptane-2-carbonyl]-3b,4,4a,5-tetrahydro-1H-cyclopropa[3,4]cyclopenta[1,2-c]pyrazol-1-yl}ethan-1-one], the IC50 was > 10000 nM at IDO1 [1] and 8.73 nM at IDO1 [2].

As to `Cc1cccc(N2CCN(C(=O)Cn3nc(C(=O)N4CCC(O)CC4)c4c3C[C@H]3C[C@@H]43)[C@@H](C)C2)c1C` [Example 334, 1-[(2S)-4-(2,3-dimethylphenyl)-2-methylpiperazin-1-yl]-2-[(3bR,4aR)-3-(4-hydroxypiperidine-1-carbonyl)-3b,4,4a,5-tetrahydro-1H-cyclopropa[3,4]cyclopenta[1,2-c]pyrazol-1-yl]ethan-1-one], the IC50 on IDO1 [1] came out at 4070 nM; on IDO1 [2] it was 1.38 nM.

Regarding `Cc1cccc(N2CCN(C(=O)Cn3nc(C(=O)N4CCC(O)CC4)c4c3C[C@H]3C[C@@H]43)[C@H](C)C2)c1C` [Example 335, 1-[(2R)-4-(2,3-dimethylphenyl)-2-methylpiperazin-1-yl]-2-[(3bR,4aR)-3-(4-hydroxypiperidine-1-carbonyl)-3b,4,4a,5-tetrahydro-1H-cyclopropa[3,4]cyclopenta[1,2-c]pyrazol-1-yl]ethan-1-one], the IC50 was 587 nM on IDO1 [1] and 2.75 nM at IDO1 [2].

With `Cc1c(N2CCN(C(=O)Cn3nc(C(=O)N4CCC(O)CC4)c4c3C[C@H]3C[C@@H]43)CC2)cccc1C(F)(F)F` [Example 338, 2-((3bR,4aR)-3-(4-hydroxypiperidine-1-carbonyl)-3b,4,4a,5-tetrahydro-1H-cyclopropa[3,4]cyclopenta[1,2-c]pyrazol-1-yl)-1-(4-(2-methyl-3-(trifluoromethyl)phenyl)piperazin-1-yl)ethanone], the IC50 is 131 nM on IDO1 [1] and 1.65 nM on IDO1 [2].

For the compound `Cc1c(N2CCN(C(=O)Cn3nc(C(=O)N4CC[C@@H](O)[C@@H](F)C4)c4c3C[C@H]3C[C@@H]43)CC2)cccc1C(F)(F)F` [Example 339, 2-((3bR,4aR)-3-((3S,4R)-3-fluoro-4-hydroxypiperidine-1-carbonyl)-3b,4,4a,5-tetrahydro-1H-cyclopropa[3,4]cyclopenta[1,2-c]pyrazol-1-yl)-1-(4-(2-methyl-3-(trifluoromethyl)phenyl)piperazin-1-yl)ethanone], the IC50 at IDO1 [1] turned out to be 229 nM; at IDO1 [2], 1.81 nM.

`Cc1c(Cl)cccc1N1CCN(C(=O)Cn2nc(C(=O)N3CCN(C(=O)CO)CC3)c3c2C[C@H]2C[C@@H]32)CC1` [Example 352, 1-(4-(3-chloro-2-methylphenyl)piperazin-1-yl)-2-((3bR,4aR)-3-(4-(2-hydroxyacetyl)piperazine-1-carbonyl)-3b,4,4a,5-tetrahydro-1H-cyclopropa[3,4]cyclopenta[1,2-c]pyrazol-1-yl)ethanone]: the 50% inhibitory concentration (IC50) at IDO1 [1] amounted to 79 nM; on IDO1 [2], 1.17 nM.

With `Cc1cccc(N2CCN(C(=O)Cn3nc(C(=O)N4CCN(C(=O)CO)CC4)c4c3C[C@H]3C[C@@H]43)C3(CC3)C2)c1C` [Example 355, 1-(4-((3bR,4aR)-1-(2-(7-(2,3-dimethylphenyl)-4,7-diazaspiro[2.5]octan-4-yl)-2-oxoethyl)-3b,4,4a,5-tetrahydro-1H-cyclopropa[3,4]cyclopenta[1,2-c]pyrazole-3-carbonyl)piperazin-1-yl)-2-hydroxyethanone], the IC50 at IDO1 [1] came out at 829 nM; at IDO1 [2], 0.94 nM.

For `Cc1cccc(N2CCN(C(=O)Cn3nc(C(=O)N4CCC(O)CC4)c4c3C[C@H]3C[C@@H]43)C3(CC3)C2)c1C` [Example 357, 1-(7-(2,3-dimethylphenyl)-4,7-diazaspiro[2.5]octan-4-yl)-2-((3bR,4aR)-3-(4-hydroxypiperidine-1-carbonyl)-3b,4,4a,5-tetrahydro-1H-cyclopropa[3,4]cyclopenta[1,2-c]pyrazol-1-yl)ethanone], the values for the IC50 at IDO1 [1] and on IDO1 [2] were 1870 nM and 0.89 nM, respectively.

`Cc1cccc(N2CCN(C(=O)Cn3nc(C(=O)N4CCO[C@@H](CO)C4)c4c3C[C@H]3C[C@@H]43)C3(CC3)C2)c1C` [Example 360, 1-(7-(2,3-dimethylphenyl)-4,7-diazaspiro[2.5]octan-4-yl)-2-((3bR,4aR)-3-((R)-2-(hydroxymethyl)morpholine-4-carbonyl)-3b,4,4a,5-tetrahydro-1H-cyclopropa[3,4]cyclopenta[1,2-c]pyrazol-1-yl)ethanone]: the IC50 on IDO1 [1] worked out at 3870 nM; at IDO1 [2], 1.17 nM.

In the case of `Cc1cccc(N2CCN(C(=O)Cn3nc(C(=O)N4CCC(F)(CO)CC4)c4c3C[C@H]3C[C@@H]43)C3(CC3)C2)c1C` [Example 362, 1-(7-(2,3-dimethylphenyl)-4,7-diazaspiro[2.5]octan-4-yl)-2-((3bR,4aR)-3-(4-fluoro-4-(hydroxymethyl)piperidine-1-carbonyl)-3b,4,4a,5-tetrahydro-1H-cyclopropa[3,4]cyclopenta[1,2-c]pyrazol-1-yl)ethanone], the IC50 at IDO1 [1] is 335 nM; at IDO1 [2] it was 0.8 nM.

Consider `Cc1c(Cl)cccc1N1CCN(C(=O)Cn2nc(C(=O)N3CCC(O)CC3)c3c2CCC(F)C3)CC1` (stereo not shown) [Example 366, 1-(4-(3-chloro-2-methylphenyl)piperazin-1-yl)-2-(5-fluoro-3-(4-hydroxypiperidine-1-carbonyl)-4,5,6,7-tetrahydro-1H-indazol-1-yl)ethan-1-one], for which the IC50 came to 141 nM at IDO1 [1] and 2.33 nM on IDO1 [2].

For `Cc1c(Cl)cccc1N1CCN(C(=O)Cn2nc(C(=O)N3CCC(O)CC3)c3c2CCC(F)(F)C3)CC1` [Example 379, 1-(4-(3-chloro-2-methylphenyl)piperazin-1-yl)-2-(5,5-difluoro-3-(4-hydroxypiperidine-1-carbonyl)-4,5,6,7-tetrahydro-1H-indazol-1-yl)ethan-1-one], the IC50 on IDO1 [1] came to 172 nM; at IDO1 [2] it was 3.25 nM.

In the case of `CC(=O)NC1CCN(C(=O)c2nn(CC(=O)N3CCN(c4cccc(Cl)c4C)CC3)c3c2CC(F)(F)CC3)CC1` [Example 380, N-(1-(1-(2-(4-(3-chloro-2-methylphenyl)piperazin-1-yl)-2-oxoethyl)-5,5-difluoro-4,5,6,7-tetrahydro-1H-indazole-3-carbonyl)piperidin-4-yl)acetamide], the IC50 was determined as 94 nM at IDO1 [1] and 1.67 nM on IDO1 [2].

As to `Cc1c(Cl)cccc1N1CCN(C(=O)Cn2nc(C(=O)N3CC[C@H](O)[C@H](F)C3)c3c2CCC(F)(F)C3)CC1` [Example 381], the IC50 at IDO1 [1] is 598 nM; on IDO1 [2] it was 4.85 nM.

As for `Cc1c(Cl)cccc1N1CCN(C(=O)Cn2nc(C(=O)N3CCN(C(=O)CO)CC3)c3c2CCC(F)(F)C3)CC1` [Example 384, 1-(4-(3-chloro-2-methylphenyl)piperazin-1-yl)-2-(5,5-difluoro-3-(4-(2-hydroxyacetyl)piperazine-1-carbonyl)-4,5,6,7-tetrahydro-1H-indazol-1-yl)ethan-1-one], the IC50 on IDO1 [1] stood at 249 nM; on IDO1 [2] it was 5.32 nM.
